The text below walks through data of patent US20240376121A1, “COMPOUNDS AND USES THEREOF” (Foghorn Therapeutics Inc., priority 2021, published 2024).

The target of one experiment is T1, HiBit-BRM fusion protein (Homo sapiens, UniProt P51531).
T1 construct: expressed in transfected cells
Briefly: HiBiT-BRM cell-based degradation assay (Nano-Glo HiBiT Lytic Detection). As to conditions: stable HeLa cell line expressing HiBiT-BRM, 24 h incubation; for BRM HiBit Degradation Maximum (%): top dose 30 μM; for DC50: read-out: BRM HiBit Degradation IC50. In a few lines: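 Residual HiBiT-BRM in a stable HeLa line was measured by Nano-Glo lytic luminescence after 24 h compound exposure (top final dose 30 μM, 3-fold, 10 points, duplicate). Values are % degradation, scaled between DMSO-treated cells and cells given 2 μM of a known BRM/BRG1 degrader.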
For orientation: With HiBiT, luminescence reflects the tagged protein that the partner subunit can reach.

In experiment [1] the target is T2, HiBit-BRG1 fusion protein (Homo sapiens, UniProt P51532).
T2 construct: expressed in transfected cells
The experiment is described as follows: HiBiT-BRG1 cell-based degradation assay (Nano-Glo HiBiT Lytic Detection). As to conditions: stable HeLa cell line expressing HiBit-BRG1 and LgBit, 24 h incubation; for Dmax: top dose 30 μM, read-out: BRG1 HiBit Degradation Maximum (%); for DC50: read-out: BRMG1 HiBit Degradation IC50. A digest of the protocol:
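Degradation was scored from HiBiT lytic luminescence, scaled between DMSO-treated wells and wells given 2 μM of a standard BRM/BRG1 degrader. Cells were a stable HeLa HiBiT-BRG1/LgBiT line dosed for 24 h, ten concentrations in 3-fold steps from 30 μM, in duplicate.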

SMILES strings stand for the structures.

T1 sequence (P51531 whole entry, the tested form may be a part): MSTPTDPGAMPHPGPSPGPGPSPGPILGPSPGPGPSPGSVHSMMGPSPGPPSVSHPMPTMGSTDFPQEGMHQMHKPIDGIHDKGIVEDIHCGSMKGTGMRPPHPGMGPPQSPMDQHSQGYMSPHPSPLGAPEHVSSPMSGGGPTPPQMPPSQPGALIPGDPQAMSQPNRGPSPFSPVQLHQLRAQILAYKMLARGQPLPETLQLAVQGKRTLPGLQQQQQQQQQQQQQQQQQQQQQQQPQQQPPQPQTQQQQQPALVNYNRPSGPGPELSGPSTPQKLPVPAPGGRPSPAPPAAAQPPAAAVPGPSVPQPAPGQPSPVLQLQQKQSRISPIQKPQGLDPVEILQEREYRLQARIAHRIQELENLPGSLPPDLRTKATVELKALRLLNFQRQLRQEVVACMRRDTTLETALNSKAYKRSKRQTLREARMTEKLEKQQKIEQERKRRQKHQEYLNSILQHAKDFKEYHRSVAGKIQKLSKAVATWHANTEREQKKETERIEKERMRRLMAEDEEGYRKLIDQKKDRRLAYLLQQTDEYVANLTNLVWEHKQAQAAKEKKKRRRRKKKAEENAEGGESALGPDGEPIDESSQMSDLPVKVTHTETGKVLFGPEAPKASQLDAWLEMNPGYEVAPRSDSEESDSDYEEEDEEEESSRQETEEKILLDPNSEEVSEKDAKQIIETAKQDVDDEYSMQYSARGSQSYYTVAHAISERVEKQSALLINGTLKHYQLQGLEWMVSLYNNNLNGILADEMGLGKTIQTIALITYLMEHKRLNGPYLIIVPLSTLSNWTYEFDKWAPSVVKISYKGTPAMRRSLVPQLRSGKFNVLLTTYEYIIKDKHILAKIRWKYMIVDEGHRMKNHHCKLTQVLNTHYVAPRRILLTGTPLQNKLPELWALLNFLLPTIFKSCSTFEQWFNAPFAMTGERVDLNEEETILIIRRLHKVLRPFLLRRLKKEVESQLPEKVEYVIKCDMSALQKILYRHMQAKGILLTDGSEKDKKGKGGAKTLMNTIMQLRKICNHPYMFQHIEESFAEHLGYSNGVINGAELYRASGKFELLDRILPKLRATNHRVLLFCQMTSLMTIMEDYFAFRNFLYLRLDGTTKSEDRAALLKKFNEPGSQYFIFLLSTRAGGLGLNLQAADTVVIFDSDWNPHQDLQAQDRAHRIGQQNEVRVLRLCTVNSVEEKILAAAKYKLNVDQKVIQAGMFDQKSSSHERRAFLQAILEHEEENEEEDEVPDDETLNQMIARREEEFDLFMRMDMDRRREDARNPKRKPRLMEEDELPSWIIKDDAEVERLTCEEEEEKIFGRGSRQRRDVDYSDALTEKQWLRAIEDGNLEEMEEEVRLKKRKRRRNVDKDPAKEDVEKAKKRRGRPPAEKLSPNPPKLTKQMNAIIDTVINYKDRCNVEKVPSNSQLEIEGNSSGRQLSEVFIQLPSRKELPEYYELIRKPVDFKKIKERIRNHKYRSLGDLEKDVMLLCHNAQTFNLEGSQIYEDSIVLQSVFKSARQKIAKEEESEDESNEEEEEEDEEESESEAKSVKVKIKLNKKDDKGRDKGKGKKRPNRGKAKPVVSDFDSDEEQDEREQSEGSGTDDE
T2 sequence (P51532 whole entry, the tested form may be a part): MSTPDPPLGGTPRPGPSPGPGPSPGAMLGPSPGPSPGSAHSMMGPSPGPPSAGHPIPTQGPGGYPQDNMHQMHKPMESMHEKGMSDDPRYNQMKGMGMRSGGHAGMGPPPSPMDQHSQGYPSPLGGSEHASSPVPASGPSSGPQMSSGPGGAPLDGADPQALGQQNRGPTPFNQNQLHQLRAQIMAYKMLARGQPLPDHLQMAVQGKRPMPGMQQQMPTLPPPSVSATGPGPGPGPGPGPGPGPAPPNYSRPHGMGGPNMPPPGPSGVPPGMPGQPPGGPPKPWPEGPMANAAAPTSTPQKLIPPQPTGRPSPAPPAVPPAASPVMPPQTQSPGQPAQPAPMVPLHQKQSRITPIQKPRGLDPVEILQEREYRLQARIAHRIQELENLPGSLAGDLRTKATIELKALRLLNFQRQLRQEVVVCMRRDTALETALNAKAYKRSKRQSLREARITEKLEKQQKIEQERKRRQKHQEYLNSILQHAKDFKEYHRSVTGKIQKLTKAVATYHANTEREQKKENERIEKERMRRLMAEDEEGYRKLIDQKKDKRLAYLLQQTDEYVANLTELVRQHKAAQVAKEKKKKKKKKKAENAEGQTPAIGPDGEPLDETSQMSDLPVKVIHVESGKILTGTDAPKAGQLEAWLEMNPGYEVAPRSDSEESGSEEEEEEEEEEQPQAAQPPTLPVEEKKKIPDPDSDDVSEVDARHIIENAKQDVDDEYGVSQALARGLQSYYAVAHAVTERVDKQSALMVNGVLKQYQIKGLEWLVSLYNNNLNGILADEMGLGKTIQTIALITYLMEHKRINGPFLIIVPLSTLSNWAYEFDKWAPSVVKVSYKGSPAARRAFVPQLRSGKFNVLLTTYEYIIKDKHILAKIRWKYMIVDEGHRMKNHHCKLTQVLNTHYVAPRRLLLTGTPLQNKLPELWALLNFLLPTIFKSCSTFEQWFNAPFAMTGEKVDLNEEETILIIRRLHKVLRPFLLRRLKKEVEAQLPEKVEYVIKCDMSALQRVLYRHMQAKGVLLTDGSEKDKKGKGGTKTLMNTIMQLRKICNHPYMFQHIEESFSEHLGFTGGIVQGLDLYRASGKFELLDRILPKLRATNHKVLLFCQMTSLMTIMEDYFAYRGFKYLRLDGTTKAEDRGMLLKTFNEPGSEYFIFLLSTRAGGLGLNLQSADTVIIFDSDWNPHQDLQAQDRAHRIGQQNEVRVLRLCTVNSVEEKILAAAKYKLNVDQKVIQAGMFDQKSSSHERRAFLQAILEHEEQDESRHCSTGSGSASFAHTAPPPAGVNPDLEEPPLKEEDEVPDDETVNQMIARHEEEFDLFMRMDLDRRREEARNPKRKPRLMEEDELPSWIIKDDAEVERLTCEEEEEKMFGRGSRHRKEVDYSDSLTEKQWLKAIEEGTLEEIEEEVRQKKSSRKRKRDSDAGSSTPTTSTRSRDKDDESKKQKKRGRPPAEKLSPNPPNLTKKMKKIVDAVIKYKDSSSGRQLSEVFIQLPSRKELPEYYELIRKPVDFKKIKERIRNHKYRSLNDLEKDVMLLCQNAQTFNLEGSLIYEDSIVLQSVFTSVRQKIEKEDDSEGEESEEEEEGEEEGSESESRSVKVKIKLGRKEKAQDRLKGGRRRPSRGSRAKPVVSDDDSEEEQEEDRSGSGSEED

`Cc1ncsc1-c1ccc([C@H](C)NC(=O)[C@@H]2C[C@@H](O)CN2C(=O)[C@@H](c2cc(N3CCC(N4CCC(c5cc6nnc(-c7ccccc7O)cc6s5)CC4)CC3)no2)C(C)C)cc1` [Compound 87, (2S,4R)-4-hydroxy-1-((R)-2-(3-(4-(3-(2-hydroxyphenyl)thieno[3,2-c]pyridazin-6-yl)-[1,4′-bipiperidin]-1′-yl)isoxazol-5-yl)-3-methylbutanoyl)-N-((S)-1-(4-(4-methylthiazol-5-yl)phenyl)ethyl)pyrrolidine-2-carboxamide]: on HiBit-BRM fusion protein, the “BRM HiBit Degradation Maximum (%)” value is “A (“A” indicates maximum degradation ≥ 75%)” and the DC50 was below 0.01 µM. In experiment [1], the Dmax is below 50% and the DC50 was at least 1 µM.
On the same counts, the results for `Cc1ncsc1-c1ccc([C@H](C)NC(=O)[C@@H]2C[C@@H](O)CN2C(=O)[C@@H](c2cc(OCCN3CCC(O)(c4sc5nnc(-c6ccccc6O)cc5c4C)CC3)no2)C(C)C)cc1` [Compound 54, (2S,4R)-4-hydroxy-1-((R)-2-(3-(2-(4-hydroxy-4-(3-(2-hydroxyphenyl)-5-methylthieno[2,3-c]pyridazin-6-yl)piperidin-1-yl)ethoxy)isoxazol-5-yl)-3-methylbutanoyl)-N-((S)-1-(4-(4-methylthiazol-5-yl)phenyl)ethyl)pyrrolidine-2-carboxamide] are “A (“A” indicates maximum degradation ≥ 75%)”, at least 0.01 µM, below 50% and at least 1 µM.
On the same counts, the results for `Cc1ncsc1-c1ccc(CNC(=O)[C@@H]2C[C@@H](O)CN2C(=O)[C@@H](NC(=O)CCCC(=O)N2CC(c3cc4cc(-c5ccccc5O)nnc4s3)C2)C(C)(C)C)cc1` [Compound 31] are “C (“C” indicates maximum degradation < 50%)”, at least 0.1 µM, below 50% and at least 1 µM.
On the same counts, the results for `Cc1ncsc1-c1ccc([C@H](C)NC(=O)[C@@H]2C[C@@H](O)CN2C(=O)[C@@H](c2cc(OCCN3CCN(c4sc5nnc(-c6ccccc6O)cc5c4C)CC3)no2)C(C)C)cc1` [Compound 66, (2S,4R)-4-hydroxy-1-((R)-2-(3-(2-(4-(3-(2-hydroxyphenyl)-5-methylthieno[2,3-c]pyridazin-6-yl)piperazin-1-yl)ethoxy)isoxazol-5-yl)-3-methylbutanoyl)-N-((S)-1-(4-(4-methylthiazol-5-yl)phenyl)ethyl)pyrrolidine-2-carboxamide] are “A (“A” indicates maximum degradation ≥ 75%)”, below 0.01 µM, at least 75% and at least 0.01 µM.
For `Cc1ncsc1-c1ccc([C@H](C)NC(=O)[C@@H]2C[C@@H](O)CN2C(=O)[C@@H](c2cc(OCC(=O)N3CCc4sc5nnc(-c6ccccc6O)cc5c4C3)no2)C(C)C)cc1` [Compound 91, (2S,4R)-4-hydroxy-1-((R)-2-(3-(2-(3-(2-hydroxyphenyl)-7,8-dihydropyrido[3′,4′:4, 5]thieno[2,3-c]pyridazin-6(5H)-yl)-2-oxoethoxy)isoxazol-5-yl)-3-methylbutanoyl)-N-((S)-1-(4-(4-methylthiazol-5-yl)phenyl)ethyl)pyrrolidine-2-carboxamide], on HiBit-BRM fusion protein, the “BRM HiBit Degradation Maximum (%)” value is recorded as “C (“C” indicates maximum degradation < 50%)” and the DC50 is at least 1 µM. In addition, in experiment [1], the Dmax is below 50% and the DC50 is at least 1 µM.
On to `Cc1ncsc1-c1ccc(CNC(=O)[C@@H]2C[C@@H](O)CN2C(=O)[C@@H](NC(=O)CCCCC(=O)N2CC(c3sc4nnc(-c5ccccc5O)cc4c3C)C2)C(C)(C)C)cc1` [Compound 18], for which, on HiBit-BRM fusion protein, the “BRM HiBit Degradation Maximum (%)” value was “C (“C” indicates maximum degradation < 50%)” and the DC50 is at least 1 µM. In experiment [1], the Dmax was below 50% and the DC50 is at least 1 µM.
